Patent US8501722B2, “Methods and compositions for treating bacterial infection” (priority 2009, dated 2013)
Where “and” joins values, the source holds several entries; their conditions need not be identical. Equal entries are not always repeated. Where two headings read alike, the source gives them in different places.

Key:
SK(+)GAS = assay: GAS growth by OD600 nm of culture; type: cell-based, Group A Streptococcus; conditions: for activity at 5 µg/mL: read-out: GAS Growth (% control), compound conc. 5 μg/ml; for activity at 10 µg/mL: read-out: GAS Growth (% control), compound conc. 10 μg/ml; for activity at 20 µg/mL: read-out: GAS Growth (% control), compound conc. 20 μg/ml; for activity at 40 µg/mL: read-out: GAS Growth (% control), compound conc. 40 μg/ml; for activity at 0.1 µg/mL: read-out: GAS Growth (% control), compound conc. 0.1 μg/ml; for activity at 0.3 µg/mL: read-out: GAS Growth (% control), compound conc. 0.3 μg/ml; for activity at 2.5 µg/mL: read-out: GAS Growth (% control), compound conc. 2.5 μg/ml; for activity at 70 µg/mL: read-out: GAS Growth (% control), compound conc. 70 μg/ml; for activity at 30 µg/mL: read-out: GAS Growth (% control), compound conc. 30 μg/ml

Experimental for streptokinase (SK): SK− Ecoli and SKCtr1's dose response relationship with these compounds were then examined.
The effects of 10 hit compounds out of the 23 identified were further tested by dose response assays. […] These compounds were tested for inhibition of ska expression by measuring SK activity in supernatants of GAS exposed to the test compound or control vehicle alone (DMSO). SK(+)GAS were cultured with hit compounds at a dose range of 10 nM to 100 μM at 37° C. for 16-20 hours. Supernatants of SK(+)GAS cultures were measured for SK activity using chromogenic substrate 2403 (Diapharma group Inc., West Chester, Ohio), according to the manufacturer's instruction and simultaneously monitored for nonspecific effects on GAS growth by measuring OD600 nm.
The positive compounds identified in dose response assays are subjected to SK assay to identify compounds inhibiting SK expression in SK(+)GAS. Briefly, SK(+)GAS is grown at the presence of hit compounds at a dose range determined by dose response assays within which SK(−) GAS growth is inhibited less than 10% while SKKanGAS growth is inhibited more than 50% under 20 μg/ml kanamycin.

Row | SMILES | activity at 5 µg/mL (SK(+)GAS; Streptococcus) [%] | activity at 10 µg/mL (SK(+)GAS; Streptococcus) [%] | activity at 20 µg/mL (SK(+)GAS; Streptococcus) [%] | activity at 40 µg/mL (SK(+)GAS; Streptococcus) [%] | SK Expression (% control) (streptokinase (SK); compound conc. 5 μg/ml) | SK Expression (% control) (streptokinase (SK); compound conc. 10 μg/ml) | SK Expression (% control) (streptokinase (SK); compound conc. 20 μg/ml) | SK Expression (% control) (streptokinase (SK); compound conc. 40 μg/ml) | activity at 0.1 µg/mL (SK(+)GAS; Streptococcus) [%] | activity at 0.3 µg/mL (SK(+)GAS; Streptococcus) [%] | activity at 2.5 µg/mL (SK(+)GAS; Streptococcus) [%] | activity at 70 µg/mL (SK(+)GAS; Streptococcus) [%] | SK Expression (% control) (streptokinase (SK); compound conc. 0.1 μg/ml) | SK Expression (% control) (streptokinase (SK); compound conc. 0.3 μg/ml) | SK Expression (% control) (streptokinase (SK); compound conc. 1.0 μg/ml) | SK Expression (% control) (streptokinase (SK); compound conc. 3 μg/ml) | SK Expression (% control) (streptokinase (SK); compound conc. 30 μg/ml) | SK Expression (% control) (streptokinase (SK); compound conc. 60 μg/ml) | activity at 30 µg/mL (SK(+)GAS; Streptococcus) [%] | other results
1 | C=CCn1c(OCC)nc2c(c1=O)C1(CCCCC1)Cc1ccccc1-2 [CCG-102622, 3-Allyl-2-ethoxy-3H-spiro[benzo[h]quinazoline-5,1′-cyclohexan]-4(6H)-one] | 99 | 100 | 103 | 113 | 43 | 41 % control | 38 % control | 23 % control | – | – | – | – | – | – | – | – | – | – | – | –
2 | C=CCn1c(SCCOC)nc2c(c1=O)C(C)(C)Cc1cc(OC)ccc1-2 [CCG-203576, 3-allyl-8-methoxy-2-(2-methoxyethylthio)-5,5-dimethyl-5,6-dihydrobenzo[h]quinazolin-4(3H)-one] | 99 | 98 | 99 | 101 | 30 | – | 19 % control | 11 % control | 102 | 101 | 100 | 105 | 99 % control and 93 % control | 99 % control and 98 % control | 99 % control and 89 % control | 100 % control and 61 % control | – | – | – | GAS Growth (% control) (SK(+)GAS; compound conc. 2.5 μg/ml): 100 % control
3 | C=CCn1c(SCCO)nc2c(c1=O)C(C)(C)Cc1ccccc1-2 [CCG-203041, 3-Allyl-2-(2-hydroxyethylthio)-5,5-dimethyl-5,6-dihydrobenzo[h]quinazolin-4(3H)-one] | 106 | – | 107 | 60 | – | 57 % control | – | – | 100 | 102 | 104 | 50 | 93 % control | 90 % control | 90 % control | 87 % control | 28 % control | 12 | – | –
4 | C=CCn1c(SCc2ccccc2)nc2c(c1=O)C1(CCCCC1)Cc1ccccc1-2 [compound 575097] | – | 89 | 88 | 86 | – | 92 % control and 88 % control | 82 % control and 79 % control | 72 % control and 74 % control | – | – | – | – | – | – | – | – | 79 % control and 77 % control | 63 | 88 | activity at 50 µg/mL (SK(+)GAS; Streptococcus, read-out: GAS Growth (% control), compound conc. 50 μg/ml): 86%; SK Expression (% control) (streptokinase (SK); compound conc. 50 μg/ml): 70 % control and 67 % control; SK Expression (% control) (streptokinase (SK); compound conc. 70 μg/ml): 65 % control
5 | C=CCn1c(SCCOC)nc2c(c1=O)C(C)(C)Cc1ccccc1-2 [CCG-102624, 3-Allyl-2-(2-methoxyethylthio)-5,5-dimethyl-5,6-dihydrobenzo[h]quinazolin-4(3H)-one] | 93 | 94 | 93 | 87 | 30 | 33 % control and 29 % control | 30 % control | 23 % control | 100 | 98 | 101 | 113 | 90 % control | 97 % control | 79 % control | 35 % control | 26 % control | 28 | – | –
6 | C=CCn1c(SCC)nc2c(c1=O)C(C)(C)Cc1ccccc1-2 [1S-26137] | 89 | 89 | 91 | 98 | 21 | 20 % control | 22 % control | 19 % control | – | – | – | – | – | – | – | – | – | – | 105 | –
